Source: patent publication US9969694B2, “N-(arylalkyl)-N′-pyrazolyl-urea, thiourea, guanidine and cyanoguanidine compounds as TrkA kinase inhibitors” (Array BioPharma Inc., priority 2012, dated 2018)

Experiments:
Assay in all cases: Off-Target Kinase Profiling
Format in all cases: biochemical
Settings in all cases: 10 μM; ATP near Km
CDK5/p35 = biological target: T1, CDK5/p35 (Homo sapiens, UniProt Q00535)
T1 construct: purchased Millipore, Inc. (KinaseProfiler service)
Method in brief: (§1)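 Percent of control is reported, the mean of two replicate runs, for each compound tested at 10 μM. The ATP level was set close to each kinase's own Km.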

MKK6 = biological target: T2, MKK6 (Homo sapiens, UniProt P52564)
T2 construct: purchased Millipore, Inc. (KinaseProfiler service)
T2 sequence (P52564 whole entry): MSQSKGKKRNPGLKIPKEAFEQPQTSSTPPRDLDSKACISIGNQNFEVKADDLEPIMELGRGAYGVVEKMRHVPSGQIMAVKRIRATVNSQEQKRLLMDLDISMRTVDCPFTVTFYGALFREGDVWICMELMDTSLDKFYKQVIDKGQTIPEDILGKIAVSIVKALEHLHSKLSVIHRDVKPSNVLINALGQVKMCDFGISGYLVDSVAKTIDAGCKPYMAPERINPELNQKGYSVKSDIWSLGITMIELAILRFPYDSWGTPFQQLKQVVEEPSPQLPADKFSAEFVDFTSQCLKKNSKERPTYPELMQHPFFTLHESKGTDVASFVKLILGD
Method in brief: as §1

TAK1 = biological target: T3, TAK1 (Homo sapiens, UniProt O43318)
T3 construct: purchased Millipore, Inc. (KinaseProfiler service)
Method in brief: as §1

FGFR3 = biological target: T4, FGFR3 (Homo sapiens, UniProt P22607)
T4 construct: purchased Millipore, Inc. (KinaseProfiler service)
Method in brief: as §1

eEF-2K = biological target: T5, eEF-2K (Homo sapiens, UniProt O00418)
T5 construct: purchased Millipore, Inc. (KinaseProfiler service)
Method in brief: as §1

IRAK4 = biological target: T6, IRAK4 (Homo sapiens, UniProt Q9NWZ3)
T6 construct: purchased Millipore, Inc. (KinaseProfiler service)
Method in brief: as §1

PKCbetaII = biological target: T7, PKCbetaII (Homo sapiens, UniProt P05771)
T7 construct: purchased Millipore, Inc. (KinaseProfiler service)
Method in brief: as §1

Abl2 = biological target: T8, Abl2 (Homo sapiens, UniProt P42684)
T8 construct: purchased Millipore (KinaseProfiler service)
Method in brief: as §1

CDK7/cyclinH/MAT1 = biological target: T9, CDK7/cyclinH/MAT1 (Homo sapiens, UniProt P50613)
T9 construct: purchased Millipore, Inc. (KinaseProfiler service)
Method in brief: as §1

MST3 = biological target: T10, MST3 (Homo sapiens, UniProt Q9Y6E0)
T10 construct: purchased Millipore, Inc. (KinaseProfiler service)
Method in brief: as §1

PKD1 = biological target: T11, PKD1 (Homo sapiens, UniProt Q15139)
T11 construct: purchased Millipore, Inc. (KinaseProfiler service)
Method in brief: as §1

SRPK1 = biological target: T12, SRPK1 (Homo sapiens, UniProt Q96SB4)
T12 construct: purchased Millipore, Inc. (KinaseProfiler service)
T12 sequence (Q96SB4 whole entry): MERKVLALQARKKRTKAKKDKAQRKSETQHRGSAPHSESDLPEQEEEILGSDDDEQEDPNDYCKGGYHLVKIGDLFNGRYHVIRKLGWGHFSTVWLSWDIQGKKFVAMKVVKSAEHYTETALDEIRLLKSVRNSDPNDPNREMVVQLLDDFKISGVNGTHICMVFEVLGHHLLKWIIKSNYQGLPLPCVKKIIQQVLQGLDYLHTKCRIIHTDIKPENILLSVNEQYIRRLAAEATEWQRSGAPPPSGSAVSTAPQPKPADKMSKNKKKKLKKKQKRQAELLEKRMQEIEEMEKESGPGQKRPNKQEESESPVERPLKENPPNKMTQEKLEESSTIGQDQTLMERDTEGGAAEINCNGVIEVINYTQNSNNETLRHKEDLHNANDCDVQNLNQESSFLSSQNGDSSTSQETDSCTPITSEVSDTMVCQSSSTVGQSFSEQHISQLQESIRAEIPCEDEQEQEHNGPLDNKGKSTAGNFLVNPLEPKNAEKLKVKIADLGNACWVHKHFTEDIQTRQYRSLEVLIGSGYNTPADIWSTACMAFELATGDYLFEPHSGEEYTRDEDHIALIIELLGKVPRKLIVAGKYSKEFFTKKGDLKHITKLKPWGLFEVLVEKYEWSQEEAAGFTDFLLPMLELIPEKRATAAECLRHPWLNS
Method in brief: as §1

AURKA = biological target: T13, AURKA (Homo sapiens, UniProt O14965)
T13 construct: purchased Millipore (KinaseProfiler service)
Method in brief: as §1

TBK1 = biological target: T14, TBK1 (Homo sapiens, UniProt Q9UHD2)
T14 construct: purchased Millipore, Inc. (KinaseProfiler service)
Method in brief: as §1

NLK = biological target: T15, NLK (Homo sapiens, UniProt Q9UBE8)
T15 construct: purchased Millipore, Inc. (KinaseProfiler service)
Method in brief: as §1

EphA8 = biological target: T16, EphA8 (Homo sapiens, UniProt P29322)
T16 construct: purchased Millipore, Inc. (KinaseProfiler service)
Method in brief: as §1

EphB2 = biological target: T17, EphB2 (Homo sapiens, UniProt P29323)
T17 construct: purchased Millipore, Inc. (KinaseProfiler service)
Method in brief: as §1

MARK2 = biological target: T18, MARK2 (Homo sapiens, UniProt Q7KZI7)
T18 construct: purchased Millipore, Inc. (KinaseProfiler service)
Method in brief: as §1

CK1delta = biological target: T19, CK1delta (Homo sapiens, UniProt P48730)
T19 construct: purchased Millipore, Inc. (KinaseProfiler service)
Method in brief: as §1

Fer = biological target: T20, Fer (Homo sapiens, UniProt P16591)
T20 construct: purchased Millipore, Inc. (KinaseProfiler service)
Method in brief: as §1

p38gamma = biological target: T21, p38gamma (Homo sapiens, UniProt P53778)
T21 construct: purchased Millipore, Inc. (KinaseProfiler service)
T21 sequence (P53778 whole entry): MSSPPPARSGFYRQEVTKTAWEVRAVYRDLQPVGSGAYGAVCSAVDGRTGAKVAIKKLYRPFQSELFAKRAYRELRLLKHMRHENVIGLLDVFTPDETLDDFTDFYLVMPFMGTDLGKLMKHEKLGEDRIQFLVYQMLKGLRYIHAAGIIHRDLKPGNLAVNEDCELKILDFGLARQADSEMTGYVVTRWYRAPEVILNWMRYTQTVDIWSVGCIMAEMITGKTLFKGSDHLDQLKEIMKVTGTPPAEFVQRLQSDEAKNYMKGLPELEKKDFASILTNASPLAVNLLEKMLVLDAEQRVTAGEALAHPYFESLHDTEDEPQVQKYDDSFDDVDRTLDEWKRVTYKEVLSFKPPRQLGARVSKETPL
Method in brief: as §1

Fms = biological target: T22, Fms (Homo sapiens, UniProt P07333)
T22 construct: purchased Millipore, Inc. (KinaseProfiler service)
Method in brief: as §1

IR = biological target: T23, IR (Homo sapiens, UniProt P06213)
T23 construct: purchased Millipore, Inc. (KinaseProfiler service)
T23 sequence (P06213 28-1382): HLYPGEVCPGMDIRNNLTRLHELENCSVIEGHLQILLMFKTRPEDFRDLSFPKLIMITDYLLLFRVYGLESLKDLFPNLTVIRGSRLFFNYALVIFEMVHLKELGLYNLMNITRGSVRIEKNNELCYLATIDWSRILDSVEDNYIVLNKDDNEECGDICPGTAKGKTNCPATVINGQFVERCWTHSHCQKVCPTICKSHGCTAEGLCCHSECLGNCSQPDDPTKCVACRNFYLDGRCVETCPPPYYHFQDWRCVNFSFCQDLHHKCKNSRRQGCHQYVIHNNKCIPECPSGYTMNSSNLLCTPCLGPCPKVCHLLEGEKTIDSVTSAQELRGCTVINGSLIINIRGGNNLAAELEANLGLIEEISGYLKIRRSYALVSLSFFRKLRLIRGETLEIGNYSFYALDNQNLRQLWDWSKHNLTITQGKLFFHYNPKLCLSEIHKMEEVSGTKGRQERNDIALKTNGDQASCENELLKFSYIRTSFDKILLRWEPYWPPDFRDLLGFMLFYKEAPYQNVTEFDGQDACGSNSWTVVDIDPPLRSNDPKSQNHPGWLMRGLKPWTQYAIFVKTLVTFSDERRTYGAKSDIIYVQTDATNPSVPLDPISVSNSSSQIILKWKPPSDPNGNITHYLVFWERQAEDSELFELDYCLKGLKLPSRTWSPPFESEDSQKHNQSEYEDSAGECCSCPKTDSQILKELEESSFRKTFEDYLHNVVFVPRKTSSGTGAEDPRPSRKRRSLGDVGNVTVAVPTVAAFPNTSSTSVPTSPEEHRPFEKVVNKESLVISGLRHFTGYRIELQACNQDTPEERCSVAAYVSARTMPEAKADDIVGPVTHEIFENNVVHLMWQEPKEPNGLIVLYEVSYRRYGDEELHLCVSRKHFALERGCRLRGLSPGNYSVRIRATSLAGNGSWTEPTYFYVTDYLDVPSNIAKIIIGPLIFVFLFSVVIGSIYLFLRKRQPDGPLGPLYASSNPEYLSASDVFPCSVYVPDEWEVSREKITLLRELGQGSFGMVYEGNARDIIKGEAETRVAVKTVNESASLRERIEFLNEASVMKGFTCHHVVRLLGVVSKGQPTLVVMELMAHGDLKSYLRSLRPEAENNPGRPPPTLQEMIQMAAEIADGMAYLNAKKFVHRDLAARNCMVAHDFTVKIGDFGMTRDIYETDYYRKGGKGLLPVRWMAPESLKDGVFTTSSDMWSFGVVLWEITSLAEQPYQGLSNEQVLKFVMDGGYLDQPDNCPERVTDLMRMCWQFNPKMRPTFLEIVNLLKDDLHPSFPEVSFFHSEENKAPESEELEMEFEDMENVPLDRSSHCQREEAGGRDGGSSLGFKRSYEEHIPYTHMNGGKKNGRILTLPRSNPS
Method in brief: as §1

Fgr = biological target: T24, Fgr (Homo sapiens, UniProt P09769)
T24 construct: purchased Millipore, Inc. (KinaseProfiler service)
Method in brief: as §1

ROCK-II = biological target: T25, ROCK-II (Homo sapiens, UniProt O75116)
T25 construct: purchased Millipore, Inc. (KinaseProfiler service)
Method in brief: as §1

PRKG1alpha = biological target: T26, PRKG1alpha (Homo sapiens, UniProt Q13976)
T26 construct: purchased Millipore, Inc. (KinaseProfiler service)
Method in brief: as §1

PAK2 = biological target: T27, PAK2 (Homo sapiens, UniProt Q13177)
T27 construct: purchased Millipore, Inc. (KinaseProfiler service)
Method in brief: as §1

MKK7beta = biological target: T28, MKK7beta (Homo sapiens, UniProt O14733)
T28 construct: purchased Millipore, Inc. (KinaseProfiler service)
Method in brief: as §1

EphA2 = biological target: T29, EphA2 (Homo sapiens, UniProt P29317)
T29 construct: purchased Millipore, Inc. (KinaseProfiler service)
Method in brief: as §1

PASK = biological target: T30, PASK (Homo sapiens, UniProt Q96RG2)
T30 construct: purchased Millipore, Inc. (KinaseProfiler service)
T30 sequence (Q96RG2 whole entry): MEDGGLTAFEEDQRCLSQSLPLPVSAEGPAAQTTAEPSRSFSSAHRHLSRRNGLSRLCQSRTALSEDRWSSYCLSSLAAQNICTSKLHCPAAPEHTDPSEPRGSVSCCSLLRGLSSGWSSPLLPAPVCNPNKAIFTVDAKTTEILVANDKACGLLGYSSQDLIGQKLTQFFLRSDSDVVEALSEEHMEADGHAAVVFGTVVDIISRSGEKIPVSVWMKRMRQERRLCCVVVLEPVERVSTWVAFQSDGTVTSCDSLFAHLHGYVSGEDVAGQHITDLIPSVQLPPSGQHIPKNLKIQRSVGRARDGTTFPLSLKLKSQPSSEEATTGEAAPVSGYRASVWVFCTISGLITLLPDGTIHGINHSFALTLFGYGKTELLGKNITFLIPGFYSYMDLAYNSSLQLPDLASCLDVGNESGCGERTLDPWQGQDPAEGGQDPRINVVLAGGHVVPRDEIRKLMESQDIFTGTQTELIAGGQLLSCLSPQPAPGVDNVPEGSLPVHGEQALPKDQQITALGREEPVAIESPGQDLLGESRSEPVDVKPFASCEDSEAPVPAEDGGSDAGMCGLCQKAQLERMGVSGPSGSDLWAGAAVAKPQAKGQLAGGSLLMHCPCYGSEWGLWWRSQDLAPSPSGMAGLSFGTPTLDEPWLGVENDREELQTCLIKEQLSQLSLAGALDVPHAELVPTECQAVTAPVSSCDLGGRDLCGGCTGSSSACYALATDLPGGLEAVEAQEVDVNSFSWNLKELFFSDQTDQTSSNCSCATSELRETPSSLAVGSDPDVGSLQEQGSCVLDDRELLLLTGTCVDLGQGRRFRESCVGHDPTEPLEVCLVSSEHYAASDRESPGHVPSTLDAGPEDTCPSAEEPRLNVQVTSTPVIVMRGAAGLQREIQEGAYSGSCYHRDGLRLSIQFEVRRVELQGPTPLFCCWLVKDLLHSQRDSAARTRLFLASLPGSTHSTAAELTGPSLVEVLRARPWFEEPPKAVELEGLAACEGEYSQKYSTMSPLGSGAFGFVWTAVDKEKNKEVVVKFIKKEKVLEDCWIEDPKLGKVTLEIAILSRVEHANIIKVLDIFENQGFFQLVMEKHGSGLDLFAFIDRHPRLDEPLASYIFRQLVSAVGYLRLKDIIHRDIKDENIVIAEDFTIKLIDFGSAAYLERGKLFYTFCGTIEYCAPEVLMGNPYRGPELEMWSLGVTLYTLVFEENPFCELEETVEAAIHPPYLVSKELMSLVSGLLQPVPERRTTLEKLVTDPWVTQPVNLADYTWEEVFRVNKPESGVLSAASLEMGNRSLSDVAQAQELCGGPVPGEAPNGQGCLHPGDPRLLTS
Method in brief: as §1

TLK2 = biological target: T31, TLK2 (Homo sapiens, UniProt Q86UE8)
T31 construct: purchased Millipore, Inc. (KinaseProfiler service)
Method in brief: as §1

FGFR1 = biological target: T32, FGFR1 (Homo sapiens, UniProt P11362)
T32 construct: purchased Millipore, Inc. (KinaseProfiler service)
Method in brief: as §1

p38alpha = biological target: T33, p38alpha (Homo sapiens, UniProt Q16539)
T33 construct: purchased Millipore, Inc. (KinaseProfiler service)
T33 sequence (Q16539 whole entry): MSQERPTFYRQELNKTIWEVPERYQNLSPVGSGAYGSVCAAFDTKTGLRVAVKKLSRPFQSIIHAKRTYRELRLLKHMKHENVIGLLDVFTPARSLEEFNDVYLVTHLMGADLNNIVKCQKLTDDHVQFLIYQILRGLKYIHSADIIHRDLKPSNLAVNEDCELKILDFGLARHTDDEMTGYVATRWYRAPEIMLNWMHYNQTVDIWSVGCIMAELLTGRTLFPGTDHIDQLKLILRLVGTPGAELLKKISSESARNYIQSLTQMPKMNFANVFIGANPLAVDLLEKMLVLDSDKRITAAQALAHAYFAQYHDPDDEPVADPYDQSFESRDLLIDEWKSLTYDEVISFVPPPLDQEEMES
Method in brief: as §1

CK2 = biological target: T34, CK2 (Homo sapiens, UniProt P68400)
T34 construct: purchased Millipore, Inc. (KinaseProfiler service)
Method in brief: as §1

LKB1 = biological target: T35, LKB1 (Homo sapiens, UniProt Q15831)
T35 construct: purchased Millipore, Inc. (KinaseProfiler service)
Method in brief: as §1

Plk1 = biological target: T36, Plk1 (Homo sapiens, UniProt P53350)
T36 construct: purchased Millipore, Inc. (KinaseProfiler service)
T36 sequence (P53350 whole entry): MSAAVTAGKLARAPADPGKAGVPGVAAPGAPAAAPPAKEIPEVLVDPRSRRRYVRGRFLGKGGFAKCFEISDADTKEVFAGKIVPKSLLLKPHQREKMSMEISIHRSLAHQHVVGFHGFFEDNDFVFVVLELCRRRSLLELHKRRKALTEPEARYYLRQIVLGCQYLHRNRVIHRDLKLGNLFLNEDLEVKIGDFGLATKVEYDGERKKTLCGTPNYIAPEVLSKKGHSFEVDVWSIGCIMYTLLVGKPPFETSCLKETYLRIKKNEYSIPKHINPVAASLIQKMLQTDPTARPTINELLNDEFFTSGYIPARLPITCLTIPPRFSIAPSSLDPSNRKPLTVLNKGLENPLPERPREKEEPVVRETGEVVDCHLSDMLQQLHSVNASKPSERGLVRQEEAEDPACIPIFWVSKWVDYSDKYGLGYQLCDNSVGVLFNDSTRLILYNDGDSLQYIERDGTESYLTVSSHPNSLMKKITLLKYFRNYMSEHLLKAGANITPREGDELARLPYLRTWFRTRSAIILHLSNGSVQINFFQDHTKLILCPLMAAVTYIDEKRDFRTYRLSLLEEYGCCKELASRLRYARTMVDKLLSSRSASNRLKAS
Method in brief: as §1

HIPK2 = biological target: T37, HIPK2 (Homo sapiens, UniProt Q9H2X6)
T37 construct: purchased Millipore, Inc. (KinaseProfiler service)
Method in brief: as §1

NEK2 = biological target: T38, NEK2 (Homo sapiens, UniProt P51955)
T38 construct: purchased Millipore, Inc. (KinaseProfiler service)
Method in brief: as §1

WNK2 = biological target: T39, WNK2 (Homo sapiens, UniProt Q9Y3S1)
T39 construct: purchased Millipore, Inc. (KinaseProfiler service)
Method in brief: as §1

LIMK1 = biological target: T40, LIMK1 (Homo sapiens, UniProt P53667)
T40 construct: purchased Millipore, Inc. (KinaseProfiler service)
Method in brief: as §1

PKCeta = biological target: T41, PKCeta (Homo sapiens, UniProt P24723)
T41 construct: purchased Millipore, Inc. (KinaseProfiler service)
Method in brief: as §1

COCc1ccc(C2CCC2)c(CNC(=O)Nc2c(C)c(-c3cnc(C)nc3)nn2-c2ccccc2)c1 [Example 10, 1-(2-cyclobutyl-5-(methoxymethyl)benzyl)-3-(4-methyl-3-(2-methylpyrimidin-5-yl)-1-phenyl-1H-pyrazol-5-yl)urea]
Avg POC CDK5/p35 (CDK5/p35): 97 POC | Avg POC MKK6 (MKK6): 131.5 POC | Avg POC TAK1 (TAK1): 86 POC | Avg POC FGFR3 (FGFR3): 104 POC | Avg POC eEF-2K (eEF-2K): 109.5 POC | Avg POC IRAK4 (IRAK4): 122.5 POC | Avg POC PKCbetaII (PKCbetaII): 94 POC | Avg POC Abl2 (Abl2): 95 POC | Avg POC CDK7/cyclinH/MAT1 (CDK7/cyclinH/MAT1): 96.5 POC | Avg POC MST3 (MST3): 99 POC | Avg POC PKD1 (PKD1): 94.5 POC | Avg POC SRPK1 (SRPK1): 116 POC | Avg POC AURKA (AURKA): 90 POC | Avg POC TBK1 (TBK1): 104.5 POC | Avg POC NLK (NLK): 107 POC | Avg POC EphA8 (EphA8): 97.5 POC | Avg POC EphB2 (EphB2): 103 POC | Avg POC MARK2 (MARK2): 98.5 POC | Avg POC CK1delta (CK1delta): 85.5 POC | Avg POC Fer (Fer): 96.5 POC | Avg POC p38gamma (p38gamma): 102.5 POC | Avg POC Fms (Fms): 83.5 POC | Avg POC IR (IR): 90 POC | Avg POC Fgr (Fgr): 97 POC | Avg POC ROCK-II (ROCK-II): 98 POC | Avg POC PRKG1alpha (PRKG1alpha): 113 POC | Avg POC PAK2 (PAK2): 88 POC | Avg POC MKK7beta (MKK7beta): 132.5 POC | Avg POC EphA2 (EphA2): 103 POC | Avg POC PASK (PASK): 70 POC | Avg POC TLK2 (TLK2): 97.5 POC | Avg POC FGFR1 (FGFR1): 68 POC | Avg POC p38alpha (p38alpha): 91.5 POC | Avg POC CK2 (CK2): 94.5 POC | Avg POC LKB1 (LKB1): 89.5 POC | Avg POC Plk1 (Plk1): 84 POC | Avg POC HIPK2 (HIPK2): 102.5 POC | Avg POC NEK2 (NEK2): 98 POC | Avg POC WNK2 (WNK2): 109 POC | Avg POC LIMK1 (LIMK1): 92 POC | Avg POC PKCeta (PKCeta): 86.5 POC

COCc1ccc(C(F)(F)F)c(CNC(=O)Nc2c(C)c(-c3cnn(C)c3)nn2-c2ccccc2)c1 [Example 33, 1-(1′,4-dimethyl-1-phenyl-1H,1′H-[3,4′-bipyrazol]-5-yl)-3-(5-(methoxymethyl)-2-(trifluoromethyl)benzyl)urea]
Avg POC CDK5/p35 (CDK5/p35): 108.5 POC | Avg POC MKK6 (MKK6): 143 POC | Avg POC TAK1 (TAK1): 88.5 POC | Avg POC FGFR3 (FGFR3): 116 POC | Avg POC eEF-2K (eEF-2K): 169.5 POC | Avg POC IRAK4 (IRAK4): 109.5 POC | Avg POC PKCbetaII (PKCbetaII): 96 POC | Avg POC Abl2 (Abl2): 139.5 POC | Avg POC CDK7/cyclinH/MAT1 (CDK7/cyclinH/MAT1): 113.5 POC | Avg POC MST3 (MST3): 126.5 POC | Avg POC PKD1 (PKD1): 94 POC | Avg POC SRPK1 (SRPK1): 113.5 POC | Avg POC AURKA (AURKA): 112 POC | Avg POC TBK1 (TBK1): 105.5 POC | Avg POC NLK (NLK): 121 POC | Avg POC EphA8 (EphA8): 123 POC | Avg POC EphB2 (EphB2): 112.5 POC | Avg POC MARK2 (MARK2): 103.5 POC | Avg POC CK1delta (CK1delta): 127.5 POC | Avg POC Fer (Fer): 90.5 POC | Avg POC p38gamma (p38gamma): 107.5 POC | Avg POC Fms (Fms): 88.5 POC | Avg POC IR (IR): 68 POC | Avg POC Fgr (Fgr): 121 POC | Avg POC ROCK-II (ROCK-II): 107.5 POC | Avg POC PRKG1alpha (PRKG1alpha): 122.5 POC | Avg POC PAK2 (PAK2): 89.5 POC | Avg POC MKK7beta (MKK7beta): 159 POC | Avg POC EphA2 (EphA2): 126.5 POC | Avg POC PASK (PASK): 205 POC | Avg POC TLK2 (TLK2): 109 POC | Avg POC FGFR1 (FGFR1): 96 POC | Avg POC p38alpha (p38alpha): 88.5 POC | Avg POC CK2 (CK2): 94.5 POC | Avg POC LKB1 (LKB1): 90 POC | Avg POC Plk1 (Plk1): 93 POC | Avg POC HIPK2 (HIPK2): 95 POC | Avg POC NEK2 (NEK2): 96 POC | Avg POC WNK2 (WNK2): 140.5 POC | Avg POC LIMK1 (LIMK1): 91.5 POC | Avg POC PKCeta (PKCeta): 98 POC
